Values after ≈ are worked out from the molar mass of the structure shown. Where two headings read alike, the source gives them in different places.
Columns and labels:
leukemic K562/R7 cells = details: literature; cited from earlier work
[1] = tested on: pentamidine-resistant L. enriettii LePentR50 promastigotes; assay: microbe, parasite or virus in culture
Method: (§1) Cell lines and Cell Culture. Promastigotes of Leishmania enriettii (LePentR50, Le wild type, LeMDR1 −/− and LeMDR1-overexpressed LeV160 mutants) and Leishmania donovani (LdAG83, Ld2001 and Ld39) were employed in this study. The former is a natural infective strain of guinea pig and the latter is a clinical strain, which may cause visceral leishmaniasis in human. Both strains were cultured in Schneider's Drosophila Medium (Invitrogen), pH 6.9 supplemented with 10% (v/v) heat inactivated fetal calf serum (Hyclone) with 4 mM glutamine (Sigma) and 25 μg/mL gentamicin solution (Invitrogen), at 27° C. for 4 days (Cloning and functional analysis of an extrachromosomally amplified multidrug resistance-like gene in Leishmania enriettii. Mol. Biochem. Parasitol 1993, 60, 195-208).
(§2) Promastigotes of LeV160 were culture in the presence of 160 μg/mL vinblastine. No pentamidine and vinblastine (Sigma) was added to the Le wild type and LeMDR1 −/− mutant.
(§3) The viability of promastigotes was determined by the Cell Titer 96® Aqueous Assay (Promega) that employs a tetrazolium compound (MTS) and electron coupling reagent, phenazine methosulfate (PMS). Promastigotes were seeded into 96-well flat bottom microtiter plate at 1×10^5 cells per well in a final volume of 100 μL medium. To determine the cytotoxic effects of flavonoid dimers to the parasites, various concentrations of flavonoid dimers were added to the promastigotes. To determine the reversal effects of flavonoid dimers with different spacer lengths, various concentrations of antileishmanial drugs, one of pentamidine or SSG, vinblastine and puromycin was added to the wells with or without flavonoid dimers. The parasites were incubated at 27° C. for 72 hrs. Each concentration of antileishmanials with or without the flavonoid dimers was tested in triplicates in each experiment. A 2 mg/mL MTS and 0.92 mg/mL PMS were mixed at a ratio of 20:1 (MTS: PMS). After 72-hr incubation, 10 μL of MTS:PMS mixture was added into each well of microtiter plate. The plate was then incubated at 27° C. for 4 hrs for color development. After 4 hrs of incubation, the OD values were determined at 490 nm using automatic microtiter plate reader (Bio-Rad).

[2] = tested on: SSG-resistant L. donovani Ld39 promastigotes; assay: microbe, parasite or virus in culture; type: cell-based, Leishmania donovani; details: for IC50: read-out: IC50(μM) of synthetic flavonoid, Ld39; for SSG resistance modulating activity: 12 μM, FIG. 14B
Method: as §1, with “195-208). […]” for “195-208).”
as §3

P388/ADR cells [3] = assay: Doxorubicin accumulation; type: cell-based, murine; details: monomer 10b at double concentration of the dimers, FIG. 11A
Method: (§4) For P388 (both parent and MDR subtype) cells, 1 ml (10^5 cells) confluent cells were aliquot into Eppendorf tube and pre-incubated with flavone dimers for 30 min at 37° C. Doxorubicin (final concentration of 10 μM) was then added and incubated for 2 h at 37° C. at a final concentration of 10 μM. The cell pellets were washed 3 times with cold PBS by using an Eppendorf micro-centrifuge and lysed with 0.3N HCL in 50% ethanol, and sonicated for 30s. After centrifugation at 10000 rpm/min for 3 min, the supernatant was saved. The fluorescence of doxorubicin was measured using a spectrofluorometer (λexcite=470 nm, λemit=585 nm).

[4] = tested on: LeMDR1 overexpressed L. enriettii (LeV160); assay: Leishmania cell viability (MTS) assay; type: cell-based, Leishmania enriettii
From the text: (§5) Cell lines and Cell Culture.

[5] = tested on: LeMDR1 knockout (LeMDR1 −/−) L. enriettii; assay: Leishmania cell viability (MTS) assay; type: cell-based, Leishmania enriettii
From the text: as §5

[6] = tested on: wild type L. donovani LdAG83 promastigotes; assay: Leishmania cell viability (MTS) assay; type: cell-based, Leishmania donovani; details: for IC50: read-out: IC50(μM) of synthetic flavonoid, LdAG83
Method: as §1, with “195-208). […]” for “195-208).”
as §3

MDA435/LCC6 MDR cells [7] = assay: cells; details: MDA435/LCC6 MDR; for doxorubicin resistance reversal: monomers; for reversing effect on taxol resistance: monomers at 10 μM
Method: (§6) MDA435/LCC6 and P388 (both parent and MDR subtype) were maintained in DMEM and RPMI 1640 culture medium supplemented with 10% FBS, respectively. RPMI 1640 media also contained 100 units/ml penicillin and 100 μg/ml streptomycin. Cells were cultured at 37° C. in a humidified atmosphere with 5% CO2. A solution of 0.05% trypsin-EDTA was used to detach the MDA435/LCC6 (both wild type and MDR subtype) cells.
(§7) Cell proliferation assay. MDA435/LCC6 and P388 (both parent and MDR subtype) cells were seeded at 2000 and 5000 cells per well, respectively, in 96-well plates. Varying concentrations of anticancer drugs (Doxorubicin, Daunorubicin, Vincristine, Vinblastine, taxol, Mitoxantrone) with or without the flavonoid dimers were added in a final volume of 200 μl and cells were grown for 4 and 3 days for MDA435/LCC6 and P388 (both parent and MDR subtype) cells, respectively. For MDA435/LCC6 (both parent and MDR subtype), the corresponding drugs were added after cell attachment (24 hr incubation). To measure cell proliferation, the cell Titer 960 Aqueous Assay (Promega) was used according to the manufacturer's instructions. Briefly, MTS (2 mg/ml) and PMS (0.92 mg/ml) were mixed in a ratio of 20:1. 30 μl MTS/PMS mixture was added into each well and incubated for 2 hours at 37° C. Optical absorbance at 490 nm was then recorded using an ELISA microtiter plate reader (Bio-Rad). Each experiment was done at least in triplicate and repeated twice. Cytotoxicity of the anticancer drugs was expressed as the fraction of the cells survived relative to the untreated DMSO (0.05%) solvent controls.
MDA435/LCC6 is an estrogen-independent human breast cancer cell line. Its MDR subtype (MDA435/LCC6 MDR) was generated by transducing a retroviral vector directing the constitutive expression of the human MDR1 cDNA, producing a cell line with a classical MDR1 resistance pattern (MDA435/LCC6 and MDA435/LCC6MDR1: ascites models of human breast cancer. Br J Cancer 1996, 73, 154-161). The ability of the apigenin dimers of this invention to reverse taxol resistance in MDA435/LCC6 MDR cells were tested. […] Apigenin monomers 10a and 10b at 10 μM were used as the negative controls.

MDA435/LCC6 MDR cells [8] = assay: Doxorubicin accumulation; type: cell-based, human; details: LCC6 MDR; apigenin dimers 10 μM; 20 μM doxorubicin, 2 h
Method: Doxorubicin accumulation. 2.5 ml (10^5 cells/ml) MDA435/LCC6 (both parent and MDR subtype) cells were seeded in each well of 6-well plates. At confluence, culture medium was removed. 2 ml of fresh DMEM with modulators was added and cells were incubated for 30 min at 37° C. Doxorubicin (final concentration of 20 μM) was then added and incubated for 2 h at 37° C. The cells were then harvested by trypsinization.
as §4
In order to understand whether the modulating activity for various anticancer drugs by different dimers is due to their different ability to modulate P-gp mediated drug efflux, their effects on the accumulation of doxorubicin in both MDA435/LCC6 sensitive and resistant cells were investigated. Doxorubicin was a fluorescent drug substrate of P-gp and was used in this experiment to monitor the P-gp mediated drug efflux. Accumulation of doxorubicin in these cells was determined in the presence or absence of apigenin dimers (10 μM) and monomer (20 μM). Verapamil was used as a positive control.

[9] = tested on: tested MDR cell lines (drug resistant breast cancer and leukemia cells); type: cell-based; details: tested MDR cell lines; 10 μM
From the text: Cell proliferation assay.

P388/ADR cells [10] = assay: cells
Method: as §6, §7

[11] = target: NBD2 cytosolic domain of mouse P-gp (Mus musculus, UniProt P06795); details: reported in literature; cited from earlier work
Chain of NBD2 cytosolic domain of mouse P-gp (P06795 1033-1271 limits assumed): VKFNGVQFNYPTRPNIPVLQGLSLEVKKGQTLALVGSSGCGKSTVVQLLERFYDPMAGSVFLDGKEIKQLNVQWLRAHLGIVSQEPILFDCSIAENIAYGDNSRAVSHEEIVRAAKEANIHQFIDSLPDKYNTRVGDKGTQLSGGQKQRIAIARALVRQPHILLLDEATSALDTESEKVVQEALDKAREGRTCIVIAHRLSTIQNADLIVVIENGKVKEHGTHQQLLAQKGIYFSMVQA

[12] = tested on: wild type L. enriettii (Le); assay: Leishmania cell viability (MTS) assay; type: cell-based, Leishmania enriettii
Method: as §1, §2
as §3, with “After 72-hr incubation, 10 μL of MTS:PMS mixture was added into each well of microtiter plate. The plate was then incubated at 27° C. for 4 hrs for color development.” left out

[13] = Leishmania enriettii, 72 h, read-out: IC50(μM) of synthetic flavonoid, LePentR50, cytotoxicity of compound alone, 72 hrs
[14] = cytotoxicity of compound alone, 72 hrs
[15] = Leishmania enriettii, read-out: IC50 of pentamidine (μg/ml), no modulator

In the case of `CC(C)=CCc1c(O)cc2oc(-c3ccccc3)cc(=O)c2c1O` [6-Prenylchrysin], the “inhibition of P-gp mediated drug efflux” value (leukemic K562/R7 cells) is given as “inhibited P-gp mediated drug efflux”.
In the case of `CC(C)=CCc1c(O)cc(O)c2c(=O)cc(-c3ccccc3)oc12` [8-Prenylchrysin], the “inhibition of P-gp mediated drug efflux” value (leukemic K562/R7 cells) is given as “inhibited P-gp mediated drug efflux”.
With `O=c1cc(-c2ccc(OCCOCCOCCOc3ccc(-c4cc(=O)c5c(O)cc(O)cc5o4)cc3)cc2)oc2cc(O)cc(O)c12` [Compound 9c, 1,10-Bis[4′-((5,7-dihydroxy)-4H-chromen-4-on-2-yl)phenyl]-1,4,7,10-tetraoxadecane] the pentamidine sensitization ([1]; LePentR50, FIG. 18A) was “about 2.7 fold”, the IC50 [1, 13] was > 200 µM and the “reduction of SSG resistance level” value ([2]; Ld39, 4 μM, FIGS. 17A and 17B) was “back to the level of the sensitive strain”. The SSG sensitization ([2]; Ld39, FIG. 18B) was 3.1 fold, the IC50 ([2]; Leishmania donovani, 72 h) was 11 ± 0.7 µM and the “activity on doxorubicin accumulation” value (P388/ADR cells [3]) was “comparable activity to 9d”. For the same compound, the “decrease of IC50 of pentamidine” value ([4]; LeV160) was “about 1.8 fold”, the pentamidine sensitization ([5]; LeMDR1 −/−) was 3.8 fold and the IC50 ([6]; Leishmania donovani, 72 h) was 8 ± 0.3 µM. The “modulatory effect on SSG sensitivity” value ([6]; SSG-sensitive wild type LdAG83, FIG. 14D) was “no modulatory effect”, the “IC60 of doxorubicin with modulator” value (MDA435/LCC6 MDR cells [7]; 5 μM dimer, FIG. 5) was 1.3 µM and the “reduction of IC60 of doxorubicin, RF” value (MDA435/LCC6 MDR cells [7]; 5 μM dimer, FIG. 5) was “about 3.6 RF”. For the same compound, the “enhancement of doxorubicin accumulation, folds of control” value (MDA435/LCC6 MDR cells [8]) was 4.5 folds.
With `O=c1cc(-c2ccc(OCCOCCOCCO)cc2)oc2cc(O)cc(O)c12` [Compound 10a, 9-[4′-((5,7-dihydroxy)-4H-chromen-4-on-2-yl)phenyl]-3,6,9,-trioxanonan-1-ol] the IC50 ([1]; read-out: IC50(μM) of synthetic flavonoid, LePentR50, cytotoxicity of compound alone, 72 hrs) was > 200 µM, the “anticancer activity of monomers alone” value [9] was “no anticancer activity” and the “SSG resistance modulating activity” value ([2]; Ld39) was “did not give any significant modulating activity”. For the same compound, the IC50 [2, 14] was > 200 µM, the “modulatory activity on doxorubicin and daunorubicin cytotoxicity” value (P388/ADR cells [10]) was “little modulatory activity” and the IC50 [6, 14] was > 200 µM. For the same compound, the doxorubicin resistance reversal (MDA435/LCC6 MDR cells [7]) was “ineffective reversers” and the “reversing effect on taxol resistance” value (MDA435/LCC6 MDR cells [7]) was “little reversing effect”.
In the case of `O=c1cc(-c2ccc(OCCOCCOCCOCCO)cc2)oc2cc(O)cc(O)c12` [Compound 10b, 12-[4′-((5,7-dihydroxy)-4H-chromen-4-on-2-yl)phenyl]-3,6,9,12-tetraoxadodecan-1-ol], the IC50 [1, 13] is reported as > 200 µM, the “anticancer activity of monomers alone” value [9] is reported as “no anticancer activity” and the “SSG resistance modulating activity” value ([2]; Ld39) is reported as “did not give any significant modulating activity”. For the same compound, the IC50 ([2]; Leishmania donovani, 72 h) was > 200 µM, the “activity on doxorubicin accumulation” value (P388/ADR cells [3]) was “little or no activity at all” and the “modulatory activity on doxorubicin and daunorubicin cytotoxicity” value (P388/ADR cells [10]) was “little modulatory activity”. The IC50 ([6]; Leishmania donovani, 72 h) was > 200 µM, the doxorubicin resistance reversal (MDA435/LCC6 MDR cells [7]) was “ineffective reversers” and the “reversing effect on taxol resistance” value (MDA435/LCC6 MDR cells [7]) was “little reversing effect”.
In the case of `O=c1c(O)c(-c2ccc(O)cc2)oc2cc(O)cc(O)c12` [kaempferol], the “binding to NBD2 cytosolic domain of mouse P-gp” value (“binding … of mouse P-gp” below) [11] is given as “bind directly”.
With `N=C(N)c1ccc(OCCCCCOc2ccc(C(=N)N)cc2)cc1` [pentamidine, reference compound] the “survival of LePentR50” value ([1]; 60 μg/ml pentamidine alone) was 94.0±2.3 % of untreated, the IC50 ([1]; Leishmania enriettii, read-out: IC50 of pentamidine alone, LePentR50, no modulator (DMSO)) was 117 µg/mL and the “IC50 of pentamidine (μg/ml), no modulator” value ([12]; Le wild type) was 12.0 ± 0.8 µg/mL. For the same compound, the IC50 ([12]; Leishmania enriettii, read-out: IC50 of pentamidine (μg/ml), no modulator, Le wild type) was ~8.7 µg/mL (≈ 25.6 µM), the IC50 [4, 15] was 9 ± 0.1 µg/mL (≈ 26.4 µM) and the IC50 [5, 15] was 18.9 ± 0.8 µg/mL (≈ 55.5 µM).
In the case of `O=c1c(O)c(-c2ccc(O)c(O)c2)oc2cc(O)cc(O)c12` [quecetin], the “binding … of mouse P-gp” value [11] is given as “bind directly”.
For dehydrosilybin, the “binding … of mouse P-gp” value [11] is listed as “bind directly”.
